# Results: US20090156577A1, “7-AMINO ALKYLIDENYL-HETEROCYCLIC QUINOLONES AND NAPHTHYRIDONES” (priority 2004, published 2009)
# Structures can show the parent of a compound that is named as a salt. Where two headings read alike, the source gives them in different places.
# System: pathogenic bacteria
# Experiment: MIC by microdilution broth method (NCCLS M7-A4), in vitro antibacterial activity
# Type: cell-based
# How it was run: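 Broth microdilution per NCCLS M7-A4: two-fold serial dilutions in cation-adjusted Mueller-Hinton broth, inoculum about 5×10^4 CFU/well. Trays incubated 16–20 h at 35 °C. MIC read by comparing growth against no-compound growth controls.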
# [1] = Staphylococcus aureus, Organism A: Staphylococcus aureus OC4172
# [2] = Streptococcus pneumoniae, ATCC49619, Organism E: Streptococcus pneumoniae ATCC 49619
# [3] = Streptococcus pneumoniae, Organism C: fluoroquinolone-resistant clinical isolate of Streptococcus pneumoniae (QRDR amino acid substitutions)
# [4] = Streptococcus pneumoniae, Organism D: fluoroquinolone-resistant clinical isolate of Streptococcus pneumoniae (QRDR amino acid substitutions)
# [5] = Staphylococcus aureus, Organism A: Staphylococcus aureus OC4172, read-out: MIC
# [6] = Streptococcus pneumoniae, ATCC49619, Organism E: Streptococcus pneumoniae ATCC 49619, read-out: MIC
# [7] = Streptococcus pneumoniae, Organism B: fluoroquinolone-resistant clinical isolate of Streptococcus pneumoniae (QRDR amino acid substitutions)
compound,measurement,setting,value
"O=C(O)c1cn(C2CC2)c2nc(N3CCC(=C(Cl)CN4CCNCC4)CC3)c(F)cc2c1=O [Compound 292, 7-[4-(1-chloro-2-piperazin-1-yl-ethylidene)-piperidin-1-yl]-1-cyclopropyl-6-fluoro-4-oxo-1,4-dihydro-[1,8]naphthyridine-3-carboxylic Acid Trifluoroacetic Acid Salt]",MIC,[1],1 µg/mL
same,MIC,[2],4 µg/mL
same,MIC,[3],> 16 µg/mL
same,MIC,[4],16 µg/mL
"O=C(O)C(F)(F)F.O=C(O)c1cn(C2CC2)c2nc(N3CCC(=C(F)CN4CCNCC4)CC3)c(F)cc2c1=O [Compound 294, 1-Cyclopropyl-6-fluoro-7-[4-(1-fluoro-2-piperazin-1-yl-ethylidene)-piperidin-1-yl]-4-oxo-1,4-dihydro-[1,8]naphthyridine-3-carboxylic Acid Trifluoroacetic Acid Salt]",MIC,[5],2 µg/mL
same,MIC,[6],8 µg/mL
same,MIC,[7],> 16 µg/mL
same,MIC,[3],> 16 µg/mL
same,MIC,[4],> 16 µg/mL
"C[C@H]1COc2c(N3CCC(=C(F)CN(C)C)CC3)c(F)cc3c(=O)c(C(=O)O)cn1c23 [Compound 295, 9-[4-(2-Dimethylamino-1-fluoro-ethylidene)-piperidin-1-yl]-8-fluoro-(3S)-3-methyl-6-oxo-2,3-dihydro-6H-1-oxa-3a-aza-phenalene-5-carboxylic Acid]",MIC,[5],0.5 µg/mL
same,MIC,[6],2 µg/mL
same,MIC,[7],16 µg/mL
same,MIC,[3],16 µg/mL
same,MIC,[4],8 µg/mL
"C/C(CN)=C1\CCCN(c2nc3c(cc2F)c(=O)c(C(=O)O)cn3C2CC2)C1.O=C(O)C(F)(F)F [Compound 297, (Z)-7-[3-(1-Amino-2-propylidene)-piperidin-1-yl]-1-cyclopropyl-6-fluoro-4-oxo-1,4-dihydro-[1,8]naphthyridine-3-carboxylic Acid Trifluoroacetic Acid Salt]",MIC,[5],0.25 µg/mL
same,MIC,[6],1 µg/mL
same,MIC,[7],16 µg/mL
same,MIC,[3],16 µg/mL
same,MIC,[4],16 µg/mL
"CN(C)CC(Cl)=C1CCN(c2cc3c(cc2F)c(=O)c(C(=O)O)cn3C2CC2)CC1 [Compound 298, 7-[4-(1-Chloro-2-dimethylamino-ethylidene)-piperidin-1-yl]-1-cyclopropyl-6-fluoro-4-oxo-1,4-dihydro-quinoline-3-carboxylic Acid Trifluoroacetic Acid Salt]",MIC,[1],0.25 µg/mL
same,MIC,[2],1 µg/mL
same,MIC,[7],16 µg/mL
same,MIC,[3],16 µg/mL
same,MIC,[4],8 µg/mL
"CN(C)CC(F)=C1CCN(c2cc3c(cc2F)c(=O)c(C(=O)O)cn3C2CC2)CC1 [Compound 299, 1-Cyclopropyl-7-[4-(2-dimethylamino-1-fluoro-ethylidene)-piperidin-1-yl]-6-fluoro-4-oxo-1,4-dihydro-quinoline-3-carboxylic acid]",MIC,[5],0.5 µg/mL
same,MIC,[6],1 µg/mL
same,MIC,[7],16 µg/mL
same,MIC,[3],> 16 µg/mL
same,MIC,[4],2 µg/mL
"O=C(O)c1cn(C2CC2)c2cc(N3CCC(=C(Cl)CN4CCCCC4)CC3)c(F)cc2c1=O [Compound 300, 7-[4-(1-Chloro-2-piperidin-1-yl-ethylidene)-piperidin-1-yl]-1-cyclopropyl-6-fluoro-4-oxo-1,4-dihydro-quinoline-3-carboxylic acid]",MIC,[5],0.5 µg/mL
same,MIC,[6],2 µg/mL
same,MIC,[7],> 16 µg/mL
same,MIC,[3],> 16 µg/mL
same,MIC,[4],2 µg/mL
"C/C(CN)=C1\CCCN(c2cc3c(cc2F)c(=O)c(C(=O)O)cn3C2CC2)C1 [Compound 301, (Z)-7-[3-(2-Amino-1-methyl-ethylidene)-piperidin-1-yl]-1-cyclopropyl-6-fluoro-4-oxo-1,4-dihydro-quinoline-3-carboxylic acid]",MIC,[5],0.12 µg/mL
same,MIC,[6],0.25 µg/mL
same,MIC,[7],8 µg/mL
same,MIC,[3],8 µg/mL
same,MIC,[4],8 µg/mL
"COc1c(N2CCC/C(=C(\C)CN)C2)c(F)cc2c(=O)c(C(=O)O)cn(C3CC3)c12 [Compound 302, (Z)-7-[3-(2-Amino-1-methyl-ethylidene)-piperidin-1-yl]-1-cyclopropyl-6-fluoro-8-methoxy-4-oxo-1,4-dihydro-quinoline-3-carboxylic acid]",MIC,[5],≤ 0.03 µg/mL
same,MIC,[6],≤ 0.12 µg/mL
same,MIC,[7],1 µg/mL
same,MIC,[3],≤ 0.5 µg/mL
same,MIC,[4],1 µg/mL
"COc1c(N2CCC/C(=C(\F)CN)C2)c(F)cc2c(=O)c(C(=O)O)cn(C3CC3)c12 [Compound 303, (E)-7-[3-(2-Amino-1-fluoro-ethylidene)-piperidin-1-yl]-1-cyclopropyl-6-fluoro-8-methoxy-4-oxo-1,4-dihydro-quinoline-3-carboxylic Acid Trifluoroacetic Acid Salt]",MIC,[5],≤ 0.015 µg/mL
same,MIC,[6],0.03 µg/mL
same,MIC,[7],0.25 µg/mL
same,MIC,[3],0.12 µg/mL
same,MIC,[4],0.25 µg/mL
"COc1c(N2CC(=C(Cl)CO)C2)c(F)cc2c(=O)c(C(=O)O)cn(C3CC3)c12 [Compound 356, 7-[3-(1-Chloro-2-hydroxy-ethylidene)-azetidin-1-yl]-1-cyclopropyl-6-fluoro-8-methoxy-4-oxo-1,4-dihydro-quinoline-3-carboxylic Acid]",MIC,[5],0.06 µg/mL
same,MIC,[6],0.5 µg/mL
same,MIC,[7],≤ 4 µg/mL
same,MIC,[3],> 16 µg/mL
same,MIC,[4],8 µg/mL
"O=C(O)c1cn(C2CC2)c2nc(N3CC(=C(Cl)CO)C3)c(F)cc2c1=O [Compound 357, 7-[3-(1-Chloro-2-hydroxy-ethylidene)-azetidin-1-yl]-1-cyclopropyl-6-fluoro-4-oxo-1,4-dihydro-[1,8]naphthyridine-3-carboxylic Acid]",MIC,[5],0.25 µg/mL
same,MIC,[6],1 µg/mL
same,MIC,[7],8 µg/mL
same,MIC,[3],16 µg/mL
same,MIC,[4],4 µg/mL
"NC/C(F)=C1/CCCN(c2c(F)cc3c(=O)c(C(=O)O)cn(-c4nc(N)c(F)cc4F)c3c2Cl)C1 [Compound 358, (E)-1-(6-Amino-3,5-difluoro-pyridin-2-yl)-7-[3-(2-amino-1-fluoro-ethylidene)-piperidin-1-yl]-8-chloro-6-fluoro-4-oxo-1,4-dihydro-quinoline-3-carboxylic Acid Trifluoroacetate]",MIC,[1],0.12 µg/mL
same,MIC,[2],0.5 µg/mL
same,MIC,[7],16 µg/mL
same,MIC,[3],8 µg/mL
same,MIC,[4],16 µg/mL
"Nc1nc(-n2cc(C(=O)O)c(=O)c3cc(F)c(N4CCC/C(=C(/F)CO)C4)c(Cl)c32)c(F)cc1F [Compound 359, (Z)-1-(6-Amino-3,5-difluoro-pyridin-2-yl)-8-chloro-6-fluoro-7-[3-(1-fluoro-2-hydroxy-ethylidene)-piperidin-1-yl]-4-oxo-1,4-dihydroquinoline-3-carboxylic Acid Trifluoroacetate]",MIC,[1],0.12 µg/mL
same,MIC,[2],1 µg/mL
same,MIC,[3],8 µg/mL
same,MIC,[4],16 µg/mL
"CNCC(Cl)=C1CN(c2c(F)cc3c(=O)c(C(=O)O)cn(-c4nc(N)c(F)cc4F)c3c2Cl)C1 [Compound 360, 1-(6-Amino-3,5-difluoro-pyridin-2-yl)-8-chloro-7-[3-(1-chloro-2-methylamino-ethylidene)-azetidin-1-yl]-6-fluoro-4-oxo-1,4-dihydro-quinoline-3-carboxylic Acid]",MIC,[5],0.06 µg/mL
same,MIC,[6],0.5 µg/mL
same,MIC,[7],16 µg/mL
same,MIC,[3],8 µg/mL
same,MIC,[4],8 µg/mL
"Nc1nc(-n2cc(C(=O)O)c(=O)c3cc(F)c(N4CC(=C(Cl)CO)C4)c(Cl)c32)c(F)cc1F [Compound 361, 1-(6-Amino-3,5-difluoro-pyridin-2-yl)-8-chloro-7-[3-(1-chloro-2-hydroxy-ethylidene)-azetidin-1-yl]-6-fluoro-4-oxo-1,4-dihydro-quinoline-3-carboxylic acid]",MIC,[5],≤ 0.015 µg/mL
same,MIC,[6],≤ 0.015 µg/mL
same,MIC,[7],0.12 µg/mL
same,MIC,[3],0.12 µg/mL
same,MIC,[4],0.06 µg/mL
